Measured values from patent publication US20040259952A1 (priority 2001, published 2004).

Columns and labels:
[1] = cited from earlier work
[2] = Single escalating dose study of Cromolyn/SNAC capsules: plasma pharmacokinetics of cromolyn and SNAC; conditions: with SNAC
Procedure: This study was a randomized, open label, oral, single escalating dose administration study in healthy, fasted volunteers.
The study was carried out in two parts. […] Safety and pharmacokinetic measures were collected and evaluated following each dose.
On day one of each study treatment period, medication (capsules) was administered following an 8-hour overnight fast. The capsules were swallowed with up to 120 mL of water to the subjects in an upright position.
The process could be summarized as follows: First, sieve SNAC powder through a screen, or delump it using a pestle/mortar.

wheal and flare reaction = experiment: Wheal and flare reaction after intracutaneous injection of codeine/histamine or allergen/histamine; format: in vivo, human; conditions: stimulated with codeine
Procedure: From the literature there are indications that nasal and lung mast cells are more sensitive to cromolyn. […] Healthy subjects received codeine/histamine to induce wheal and flare reaction, and allergic subjects received allergen/histamine to induce wheal and flare reaction.
Wheal and flare reaction was read 15 min. after the injections of codeine/histamine or allergen/histamine, traced by pen onto transparent cellophane and the length and width of the reaction was measured. Wheal and flare reaction was measured for Group 1 (healthy subjects) after intracutaneous injection of codeine/histamine before the morning dose on day 1, at 45 minutes after the morning dose on days 1, 2, 4, 6, 8 and 10, and at 4 and 8 hours after the morning dose on days 2, 4 and 10. Wheal and flare reaction was measured for Group 2 (subjects with allergies) after injection with allergen/histamine before the morning dose on day 1, at 60 minutes after the morning dose on days 4 and 10, and at 8 hours after the morning dose on day 4.

[3] = Multiple dose study (twice daily for ten days): plasma pharmacokinetics of cromolyn and SNAC
Procedure: Two groups of human males were defined: group 1 consisted of 12 healthy male volunteers, and group 2 had 12 allergic male volunteers. […] The dosing regimen is illustrated in Table 7 below.
Each subject received oral dosing of the study medication twice a day for nine days. On the last day (i.e., day 10), only the morning dose was administered. The capsules were administered with up to 200 mL of water to the subjects in an upright position. The first dose of each day was administered following an overnight fast, and the second dose of each day was administered at least 1 hour before a meal or 4 hours after a meal. No food was allowed for at least 4 hours before the oral dosing.
Pharmacodynamics were measured for Group 1 and 2 by measuring the length and width of the wheal and flare reaction, and permanent records were generated by marking on transparent tapes and/or by photographs. For Group 2 only, pharmacodynamics were also measured by VAS scores and PNIF measurements before and after nasal provocation test.

[4] = cited from earlier work; remark: listed apart in the source
[5] = test system: airway resistance of the sheep after challenge with ascaris; experiment: Airway resistance after ascaris challenge in sheep given oral cromolyn
Procedure: A control formulation without cromolyn was also administered to an additional group. The biological effect of the cromolyn was assessed using changes in airway resistance of the sheep after challenge with ascaris.

[6] = Administration of cromolyn to rats: serum pharmacokinetics by HPLC; format: in vivo, Sprague-Dawley rats
Procedure: Male Sprague-Dawley rats weighing 225-275 grams were fasted for 24 hours. Rats were anesthized by intra-muscular injection with ketamine and thorazine. Experimental groups were dosed by oral gavage or by intravenous injection. Blood samples were collected serially via the tail artery. Serum obtained from whole blood was acidified and cromolyn extracted with ethyl acetate. The ethyl acetate was added to phosphate buffer or back extraction of cromolyn. Pharmacokinetic parameters were determined from extracted serum by HPLC.

[7] = Single dose study: safety and tolerability; format: in vivo, human; conditions: SNAC administered alone
Procedure: Cromolyn sodium was orally administered to healthy human subjects in a study designed to evaluate the safety, tolerability, oral absorption and pharmacokinetics data following various doses of cromolyn orally administered in combination with the delivery agent SNAC as capsules. […] This study was a randomized, open label, oral, single escalating dose administration study in healthy, fasted volunteers.
On day one of each study treatment period, medication (capsules) was administered following an 8-hour overnight fast. The capsules were swallowed with up to 120 mL of water to the subjects in an upright position. After each dosing, safety, and pharmacokinetic measures were taken, and cromolyn concentrations were evaluated.

[8] = serum cromolyn, Cromolyn 1.5 mg/kg IV

In the case of “5,5′-[(2-hydroxy-1,3-propanediyl)bis-(oxy)]4-oxo-4H-1-benzopyran-2-carboxylic acid [cromolyn]”, the “dose eliminated unchanged in the feces” value ([1]; in vivo) is given as “Roughly 98%”, the absolute bioavailability ([1]; inhalation dose of 20 mg) is given as “about 8%” and the “inhaled dose that reaches the lungs” value ([1]; inhalation) is given as 5-10%. The systemic bioavailability ([1]; oral cromolyn without the delivery agents) was “approximately 1%”, the mean elimination half-life [2] was 60 to 120 min and the “time of maximum plasma concentrations post-dose” value [2] was “about 20 minutes”. For the same compound, the “effects on skin mast cell degranulation (wheal and flare)” value (wheal and flare reaction) was “no significant effects”, the “time within which plasma concentrations declined to negligible levels” value ([3]; after each drug administration) was no more than 4 h and the “oral absorption (plasma concentration)” value ([3]; cromolyn administered without SNAC) was less than 2.3 ng/mL. For the same compound, the mean plasma concentrations ([3]; cromolyn given in combination with 600 mg SNAC) was “up to 65 ng/mL”, the “time of peak concentrations after drug administration” value ([3]; cromolyn given orally in combination with SNAC, fasting male volunteers) was “approximately 20 minutes” and the plasma half-life ([3]; multiple dose study) was roughly 45 min. The solubility in water [4] was “freely soluble in water”, the “mean protection vs. the peak control response” value ([5]; 100 mg/kg cromolyn and 300 mg/kg delivery agent 12 hours prior to challenge) was 77% and the “P-Acaris % (change in airway resistance)” value ([5]; Drug Trial, Means, 300 mg/kg CR-1 & 100 mg/kg Cromolyn oral 12 hrs. before Ag. challenge) was “approximately 157%”. For the same compound, the serum cromolyn concentrations ([6]; control group, cromolyn alone) was “No detectable”, the “area under the serum concentration-time curve (AUC)” value ([6]; intravenous cromolyn 1.5 mg/kg) was 20.4 µg·min/mL and the “peak serum concentration (Cmax)” value ([6]; intravenous cromolyn 1.5 mg/kg) was 1300 ng/mL. For the same compound, the “time of peak serum concentration (Tmax)” value ([6]; intravenous cromolyn 1.5 mg/kg) was 0 h, the “Avg. AUC” value [6, 8] was 20.4 µg·min/mL and the “Avg. Cmax” value [6, 8] was 1300 ng/mL. The Tmax [6, 8] was 0 h.
With `O=C([O-])CCCCCCCNC(=O)c1ccccc1O.[Na+]` [SNAC, Sodium N-[8-(2-hydroxybenzoyl)amino]caprylate] the “effect on human subjects” value [7] was “did not display any significant effect”, the Tmax ([3]; male, human, in vivo) was roughly 30 min and the half-life ([3]; male, human, in vivo) was roughly 25 min. The “accumulation during multiple dose treatment” value ([3]; twice daily dosing) was “no accumulation”.
